The text below walks through data of patent US12507703B2, “Methods, devices and compositions for preserving human milk” (The Trustees of Princeton University, priority 2023, dated 2025).

Where “and” joins values, the source holds several entries; their conditions need not be identical. Equal values may be shown once.

This experiment has as its system lipase. The experiment can be described thus: Lipase/lipolysis assay (EnzChek Lipase Substrate, quenched BODIPY-fatty acid conjugate) on stored human milk. Further: test concentration or dose not given here.
Consider Anacardic Acid, for which the “Lipase (RFU)” value was determined as 908.2535 RFU. With `C[C@H](CCC(=O)NCCS(=O)(=O)[O-])[C@H]1CC[C@H]2[C@@H]3[C@@H](O)C[C@@H]4C[C@H](O)CC[C@]4(C)[C@H]3CC[C@]12C.[Na+]` [Tauroursodeoxycholate (sodium)], the “Lipase (RFU)” value is reported as 939.6362 RFU. Take `O=C(O)CCCC(=O)O` [Glutaric acid]: the “Lipase (RFU)” value is given as 944.8681 RFU. Consider `O=C(CO)[C@@H](O)[C@H](O)[C@@H](O)CO` [L-Sorbose], for which the “Lipase (RFU)” value turned out to be 1197.031 RFU. β Glucan - 1,3/1,6: the “Lipase (RFU)” value came out at 942.984 RFU.

Take `O=C([O-])[C@H](O)[C@@H](O)[C@H](O)[C@H](O)CO.[Na+]` [Gluconate (sodium)]: the “Lipase (RFU)” value is on record as 1019.914 RFU.

Turning to `CCO[C@@H]1O[C@H](C(=O)O)[C@@H](O)[C@H](O)[C@H]1O` [Ethyl glucuronide], the “Lipase (RFU)” value amounted to 1053.076 RFU. As for `Cc1ccc(OS(=O)(=O)[O-])cc1.[K+]` [p-Cresyl sulfate (potassium)], the “Lipase (RFU)” value is 825.569 RFU.

With `C[C@@H]1O[C@@H](O[C@H]2C[C@@H](O)[C@]3(CO)[C@H]4[C@H](O)C[C@]5(C)[C@@H](C6=CC(=O)OC6)CC[C@]5(O)[C@@H]4CC[C@]3(O)C2)[C@H](O)[C@H](O)[C@H]1O.O.O.O.O.O.O.O.O` [Ouabain (Octahydrate)], the “Lipase (RFU)” value is 901.7077 RFU. On to `O=c1cc(O)c2ccccc2o1` [Compound 4-Hydroxycoumarin, 4-Hydroxycoumarin], for which the “Lipase (RFU)” value worked out at 929.4704 RFU. For the compound `CCCCC[C@H](O)/C=C/[C@H]1C(=O)C[C@H](O)[C@@H]1C/C=C\CCCC(=O)O` [Prostaglandin D2], the “Lipase (RFU)” value is recorded as 071064.5 RFU. Under `COc1cc2ccc(=O)oc2c(OC)c1O` [Isofraxidin] stands 929.2612 RFU. Consider `CN(C)C(N)=NCCC[C@H](N)C(=O)O` [Asymmetric dimethylarginine], for which the “Lipase (RFU)” value is 806.9828 RFU.

Turning to `CC(=O)O[C@]1(C)CC[C@@]23C[C@@H]1C(C)(C)[C@@H]2CC[C@H]3C` [Cedryl acetate], the “Lipase (RFU)” value turned out to be 1088.309 RFU. In the case of `NC(=O)CC[C@@H]1NC(=O)[C@H](Cc2ccccc2)NC(=O)[C@H](Cc2ccc(O)cc2)NC(=O)[C@@H](N)CSSC[C@@H](C(=O)N2CCC[C@H]2C(=O)N[C@@H](CCCN=C(N)N)C(=O)NCC(N)=O)NC(=O)[C@H](CC(N)=O)NC1=O` [Vasopressin], the “Lipase (RFU)” value was 1150.397 RFU. Consider Dextrin, for which the “Lipase (RFU)” value came to 915.3079 RFU.

Consider `O=C(O)c1cccc(O)c1O` [Pyrocatechuic acid], for which the “Lipase (RFU)” value is recorded as 896.9439 RFU. Turning to `Cn1cc(C(N)=O)ccc1=O` [Nudifloramide], the “Lipase (RFU)” value worked out at 993.1021 RFU. Then `O=c1ccc2cc(O[C@@H]3O[C@H](CO)[C@@H](O)[C@H](O)[C@H]3O)c(O)cc2o1` [Esculin], with 1207.652 RFU. For `OCCc1c[nH]c2ccc(O)cc12` [5-Hydroxytryptophol], the “Lipase (RFU)” value was 681.6533 RFU. Then `C[N+]1(C)CCC[C@H]1C(=O)[O-].Cl` [Stachydrine hydrochloride], with 915.6673 RFU; and `N#C[C@H](O[C@@H]1O[C@H](CO[C@@H]2O[C@H](CO)[C@@H](O)[C@H](O)[C@H]2O)[C@@H](O)[C@H](O)[C@H]1O)c1ccccc1` [Amygdalin], with 1036.373 RFU and 736.6201 RFU; and (−)-Fenchone, with 812.4614 RFU. Regarding Sorafenib (Tosylate), the “Lipase (RFU)” value amounted to 986.7553 RFU. On to `O=C(O)C[C@H](O)C(=O)O` [(S)-Malic acid], for which the “Lipase (RFU)” value is 1015.072 RFU and 818.4693 RFU. Take `C[N+]1(C)CCC[C@H]1C(=O)[O-]` [Stachydrine]: the “Lipase (RFU)” value came out at 1061.585 RFU. For the compound `C[C@H]1CC[C@]2(NC1)O[C@H]1C[C@H]3[C@@H]4CC[C@H]5C[C@@H](O)CC[C@]5(C)[C@H]4CC[C@]3(C)[C@H]1[C@@H]2C` [Tomatidine], the “Lipase (RFU)” value worked out at 1057.071 RFU. Regarding `O=c1c(O[C@@H]2O[C@H](CO[C@@H]3O[C@H](CO)[C@@H](O)[C@H](O)[C@H]3O)[C@@H](O)[C@H](O)[C@H]2O)c(-c2ccc(O)cc2)oc2cc(O)cc(O)c12` [Kaempferol 3-O-gentiobioside], the “Lipase (RFU)” value turned out to be 1150.858 RFU. Then `O=C1C=C2C(=CCOC2O)O1` (stereo not shown) [Patulin], with 1145.028 RFU; and `CC(C)(O)C1Cc2cc3cc(-c4cc(O)cc(O)c4)oc3cc2O1` (stereo not shown) [Moracin O], with 899.9132 RFU; and Gentiobiose, with 1106.66 RFU.

Turning to `COc1c(O)cc2oc3cc4c(c(O)c3c(=O)c2c1CC=C(C)C)CCC(C)(C)O4` [Compound 3-Isomangostin], the “Lipase (RFU)” value is given as 1135.455 RFU. Turning to `CC(C)[C@@H](C)/C=C/[C@@H](C)[C@H]1CC[C@H]2[C@@H]3CC=C4C[C@@H](O)CC[C@]4(C)[C@H]3CC[C@]12C` [Brassicasterol], the “Lipase (RFU)” value was determined as 931.4963 RFU. On to `CCCCCCCC/C=C\CCCCCCCC(=O)[O-].[Na+]` [Sodium oleate], for which the “Lipase (RFU)” value was 985.0339 RFU and 925.2134 RFU.

With Gluconate (Calcium), the “Lipase (RFU)” value was found to be 840.1946 RFU. Take `NC(Cc1ccccc1O)C(=O)O` (racemic) [DL-O-Tyrosine]: the “Lipase (RFU)” value was found to be 919.2122 RFU. `O=C(O)c1ccccc1` [Benzoic Acid]: the “Lipase (RFU)” value was 1003.567 RFU and 1115.708 RFU and 946.6732 RFU. For the compound `O=C(O)CCCC(=O)C(=O)O` [Oxoadipic acid], the “Lipase (RFU)” value turned out to be 732.376 RFU. Under `NC(=O)CCCCC1CCSS1` (racemic) [D,L-Lipoamide] stands 1094.48 RFU. `C[C@]12CC[C@@H]3c4ccc(O)c(O)c4CC[C@H]3[C@@H]1CCC2=O` [Compound 4-Hydroxyestrone]: the “Lipase (RFU)” value worked out at 1068.255 RFU. Take `COc1cc2c(cc1O)CC[C@@H]1[C@@H]2CC[C@]2(C)C(=O)CC[C@@H]12` [Compound 2-Methoxyestrone]: the “Lipase (RFU)” value is 970.0321 RFU. For the compound `CC(C)[C@H](C)CC[C@@H](C)[C@H]1CC[C@H]2[C@@H]3CC=C4C[C@@H](O)CC[C@]4(C)[C@H]3CC[C@]12C` [Campesterol], the “Lipase (RFU)” value amounted to 912.1206 RFU. On to `OC[C@H]1O[C@H](OC[C@H]2OC(O)(CO)[C@@H](O)[C@@H]2O)[C@H](O)[C@@H](O)[C@@H]1O` (stereo partly shown) [Palatinose], for which the “Lipase (RFU)” value is recorded as 803.211 RFU. On to `O=C(/C=C/c1ccc(O)c(O)c1)O[C@H]1[C@H](O)C[C@](O)(C(=O)O)C[C@H]1OC(=O)/C=C/c1ccc(O)c(O)c1` [3,4-Dicaffeoylquinic acid], for which the “Lipase (RFU)” value is listed as 721.4239 RFU.

For D-(−)-Quinic acid, the “Lipase (RFU)” value is recorded as 827.4863 RFU. Take `COc1ccc(C=O)cc1OC` [Veratraldehyde]: the “Lipase (RFU)” value is 898.3756 RFU and 979.6116 RFU. For `N[C@@H](C(=O)O)[C@@H](O)[C@H](O)[C@H](O)CO` [D-Glucosaminic Acid], the “Lipase (RFU)” value came out at 794.5821 RFU. Then `N[C@@H](CCC(=O)O)C(=O)O` [L-Glutamic Acid], with 1101.527 RFU and 821.1812 RFU; and `CC(C)=CCC[C@@](C)(O)[C@H]1CC[C@]2(C)[C@@H]1[C@H](O)C[C@@H]1[C@@]3(C)CC[C@H](O)C(C)(C)[C@@H]3CC[C@]12C` [(20R)-Protopanaxadiol], with 1067.282 RFU.
